Source: patent US11006631B2, “Substituted pyrimidinyloxy pyridine derivatives as herbicides” (FMC Corporation, priority 2015, dated 2021)

Columns and labels:
Type in all cases: in vivo
[1] = system: oilseed rape (Brassica napus); test: Test C postemergence, oilseed rape
Source text: (§1) Seeds of plant species selected from blackgrass (Alopecurus myosuroides), ryegrass, Italian (Italian ryegrass, Lolium multiflorum), wheat (winter wheat, Triticum aestivum), galium (catchweed bedstraw, Galium aparine), corn (Zea mays), crabgrass, large (large crabgrass, Digitaria sanguinalis), foxtail, giant (giant foxtail, Setaria faberii), lambsquarters (Chenopodium album), morningglory (Ipomoea coccinea), nutsedge, yellow (yellow nutsedge, Cyperus esculentus), pigweed (Amaranthus retroflexus), johnsongrass (Sorghum halepense), ragweed (common ragweed, Ambrosia elatior), soybean (Glycine max), barnyardgrass (Echinochloa crus-galli), oilseed rape (Brassica napus), waterhemp (common waterhemp, Amaranthus rudis), chickweed (common chickweed, Stellaria media), oat, wild (wild oat, Avena fatua), kochia (Kochia scoparia), and velvetleaf (Abutilon theophrasti) were planted in pots containing Redi-Earth® planting medium (Scotts Company, 14111 Scottslawn Road, Marysville, Ohio 43041) comprising spaghnum peat moss, vermiculite, wetting agent and starter nutrients and treated with postemergence applications of a test chemical formulated in a non-phytotoxic solvent mixture which included a surfactant. Plants ranged in height from 2 to 18 cm (1- to 4-leaf stage) for postemergence treatments. Treated plants and controls were maintained in a greenhouse for 13 to 15 days, after which time all species were compared to controls and visually evaluated. Plant response ratings, summarized in Table C, are based on a scale of 0 to 100 where 0 is no effect and 100 is complete control. A dash (-) response means no test result.

kochia (Kochia scoparia) [2] = test: Test C postemergence, kochia
Source text: as §1

[3] = system: barnyardgrass (Echinochloa crus-galli); test: Test A preemergence, barnyardgrass; conditions: 0 to 100 scale
Summary of the method: (§2)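 Plants are sown in a loam soil and sand blend, then treated with formulated compound either preemergence by directed soil spray or postemergence at one- to two-leaf stage. After approximately 10 days, injury is judged visually against untreated controls using a 0 to 100 control scale.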

[4] = system: galium (catchweed bedstraw, Galium aparine); test: Test A postemergence, galium; conditions: 0 to 100 scale
Summary of the method: as §2

[5] = system: johnsongrass (Sorghum halepense); test: Test C postemergence, johnsongrass
Source text: as §1

[6] = system: pigweed (Amaranthus retroflexus); test: Test A preemergence, pigweed; conditions: 0 to 100 scale
Summary of the method: as §2

corn (Zea mays) [7] = test: Test A postemergence, corn; conditions: 0 to 100 scale
Summary of the method: as §2

[8] = system: barnyardgrass (Echinochloa crus-galli); test: Test C postemergence, barnyardgrass
Source text: as §1

[9] = system: morningglory (Ipomoea coccinea); test: Test C postemergence, morningglory
Source text: as §1

rice (Oryza sativa) = test: Test B flooded paddy test, rice; conditions: Flood, 250 g ai/ha; scale of 0 to 100
Summary of the method: (§3)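 Visual ratings from 0, meaning no effect, up to 100, meaning complete control, were made by comparison with untreated controls 13 to 15 days after treatment. Test compounds went straight into floodwater standing 3 cm over the soil of pots holding 2-leaf seedlings.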

[10] = system: oat, wild (wild oat, Avena fatua); test: Test C postemergence, oat, wild
Source text: as §1

[11] = system: ragweed (common ragweed, Ambrosia elatior); test: Test C postemergence, ragweed
Source text: as §1

[12] = system: barnyardgrass (Echinochloa crus-galli); test: Test B flooded paddy test, barnyardgrass; conditions: Flood, 250 g ai/ha; scale of 0 to 100
Summary of the method: as §3

kochia (Kochia scoparia) [13] = test: Test A postemergence, kochia; conditions: 0 to 100 scale
Summary of the method: as §2

corn (Zea mays) [14] = test: Test C postemergence, corn
Source text: as §1

[15] = system: ragweed (common ragweed, Ambrosia elatior); test: Test A postemergence, ragweed; conditions: 0 to 100 scale
Summary of the method: as §2

soybean (Glycine max) = test: Test C postemergence, soybean
Source text: as §1

[16] = system: ragweed (common ragweed, Ambrosia elatior); test: Test A preemergence, ragweed; conditions: 0 to 100 scale
Summary of the method: as §2

FC(F)c1cc(-c2ncccc2Oc2ncc(Cl)cn2)on1 [Compound 5, 5-chloro-2-[[2-[3-(difluoromethyl)-5-isoxazolyl]-3-pyridinyl]oxy]pyrimidine]
5: Plant response rating, Oilseed Rape ([1]; 16 g ai/ha) | Plant response rating, Johnsongrass ([5]; 62 g ai/ha) | Plant response rating, Barnyardgrass ([8]; 62 g ai/ha) | Plant response rating, Oat, Wild ([10]; 125 g ai/ha) | Plant response rating, Ragweed ([11]; 16 g ai/ha) | Plant response rating, Corn (corn (Zea mays) [14]; 16 g ai/ha) | Plant response rating, Corn (corn (Zea mays) [14]; 31 g ai/ha) | Plant response rating, Corn (corn (Zea mays) [14]; 62 g ai/ha) | Plant response rating, Corn (corn (Zea mays) [14]; 125 g ai/ha)
70: Plant response rating, Soybean (soybean (Glycine max); 31 g ai/ha)
100: Plant response rating, Pigweed ([6]; 125 g ai/ha)
0: Plant response rating, Barnyardgrass ([3]; 31 g ai/ha) | Plant response rating, Johnsongrass ([5]; 16 g ai/ha) | Plant response rating, Johnsongrass ([5]; 31 g ai/ha) | Plant response rating, Corn (corn (Zea mays) [7]; 31 g ai/ha) | Plant response rating, Barnyardgrass ([8]; 16 g ai/ha) | Plant response rating, Barnyardgrass ([8]; 31 g ai/ha) | Plant response rating, Rice (rice (Oryza sativa)) | Plant response rating, Oat, Wild ([10]; 16 g ai/ha) | Plant response rating, Oat, Wild ([10]; 31 g ai/ha) | Plant response rating, Oat, Wild ([10]; 62 g ai/ha) | Plant response rating, Barnyardgrass [12] | Plant response rating, Ragweed ([16]; 31 g ai/ha)
10: Plant response rating, Johnsongrass ([5]; 125 g ai/ha) | Plant response rating, Corn (corn (Zea mays) [7]; 125 g ai/ha) | Plant response rating, Barnyardgrass ([8]; 125 g ai/ha) | Plant response rating, Ragweed ([16]; 125 g ai/ha)
60: Plant response rating, Oilseed Rape ([1]; 31 g ai/ha) | Plant response rating, Oilseed Rape ([1]; 62 g ai/ha) | Plant response rating, Galium ([4]; 125 g ai/ha) | Plant response rating, Ragweed ([15]; 125 g ai/ha) | Plant response rating, Soybean (soybean (Glycine max); 16 g ai/ha)
80: Plant response rating, Pigweed ([6]; 31 g ai/ha) | Plant response rating, Kochia (kochia (Kochia scoparia) [13]; 31 g ai/ha)
90: Plant response rating, Kochia (kochia (Kochia scoparia) [2]; 16 g ai/ha) | Plant response rating, Kochia (kochia (Kochia scoparia) [2]; 31 g ai/ha) | Plant response rating, Kochia (kochia (Kochia scoparia) [2]; 62 g ai/ha) | Plant response rating, Kochia (kochia (Kochia scoparia) [2]; 125 g ai/ha) | Plant response rating, Kochia (kochia (Kochia scoparia) [13]; 125 g ai/ha) | Plant response rating, Soybean (soybean (Glycine max); 125 g ai/ha)
20: Plant response rating, Barnyardgrass ([3]; 125 g ai/ha) | Plant response rating, Ragweed ([15]; 31 g ai/ha)
85: Plant response rating, Oilseed Rape ([1]; 125 g ai/ha) | Plant response rating, Morningglory ([9]; 125 g ai/ha)
35: Plant response rating, Ragweed ([11]; 62 g ai/ha)
40: Plant response rating, Galium ([4]; 31 g ai/ha) | Plant response rating, Ragweed ([11]; 31 g ai/ha) | Plant response rating, Soybean (soybean (Glycine max); 62 g ai/ha)
65: Plant response rating, Morningglory ([9]; 31 g ai/ha) | Plant response rating, Morningglory ([9]; 62 g ai/ha) | Plant response rating, Ragweed ([11]; 125 g ai/ha)
75: Plant response rating, Morningglory ([9]; 16 g ai/ha)
